Data from ChEMBL document CHEMBL1201862, “PubChem BioAssay data set” (2004).
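Following 48 hours of exposure in 96-well plates, responses at five concentrations were used to interpolate endpoints linearly. GI50 marks 50% less growth.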 Calls of active or inactive are those of the source. Rule as the data show it: active = GI50 up to about 1.1 µM and inactive = higher.

Assays:
Assay in all cases: DTP human tumour cell line panel, 48 h
SNB-19 = tested on: SNB-19
PC-3 = tested on: PC-3
SF-268 = tested on: SF-268
MDA-N = tested on: MDA-N
SF-539 = tested on: SF-539
MOLT-4 = tested on: MOLT-4
NCI-H460 = tested on: NCI-H460
HCT-116 = tested on: HCT-116
DU-145 = tested on: DU-145
MDA-MB-231 = tested on: MDA-MB-231
SF-295 = tested on: SF-295
HCC 2998 = tested on: HCC 2998
MCF7 = tested on: MCF7
OVCAR-4 = tested on: OVCAR-4
HL-60 = tested on: HL-60
SW-620 = tested on: SW-620
SN12C = tested on: SN12C
SK-OV-3 = tested on: SK-OV-3
SK-MEL-5 = tested on: SK-MEL-5
NCI-H23 = tested on: NCI-H23
SK-MEL-28 = tested on: SK-MEL-28
UACC-257 = tested on: UACC-257
OVCAR-5 = tested on: OVCAR-5
OVCAR-3 = tested on: OVCAR-3
CCRF-CEM = tested on: CCRF-CEM
TK-10 = tested on: TK-10
HT-29 = tested on: HT-29
NCI/ADR-RES = tested on: NCI/ADR-RES
NCI-H522 = tested on: NCI-H522
A498 = tested on: A498
Malme-3M = tested on: Malme-3M
HCT-15 = tested on: HCT-15
K562 = tested on: K562
COLO 205 = tested on: COLO 205
T47D = tested on: T47D
UO-31 = tested on: UO-31
KM12 = tested on: KM12
OVCAR-8 = tested on: OVCAR-8
CAKI-1 = tested on: CAKI-1
SK-MEL-2 = tested on: SK-MEL-2
MDA-MB-435 = tested on: MDA-MB-435
M14 = tested on: M14
U-251 = tested on: U-251
RPMI-8226 = tested on: RPMI-8226
EKVX = tested on: EKVX
UACC-62 = tested on: UACC-62
RXF 393 = tested on: RXF 393
A549 = tested on: A549
LOX IMVI = tested on: LOX IMVI
HOP-62 = tested on: HOP-62
NCI-H226 = tested on: NCI-H226
HOP-92 = tested on: HOP-92
ACHN = tested on: ACHN
IGROV-1 = tested on: IGROV-1
BT-549 = tested on: BT-549
Hs-578T = tested on: Hs-578T
786-0 = tested on: 786-0
SNB-75 = tested on: SNB-75

Clc1ccc2c(NCCNc3ccnc4cc(Cl)ccc34)ccnc2c1
GI50 (SNB-19): 20.1 µM (inactive) | GI50 (PC-3): 17 µM (inactive) | GI50 (SF-268): 25.9 µM (inactive) | GI50 (MDA-N): 17.1 µM (inactive) | GI50 (SF-539): 12 µM (inactive) | GI50 (MOLT-4): 17.4 µM (inactive) | GI50 (NCI-H460): 14 µM (inactive) | GI50 (HCT-116): 16.9 µM (inactive) | GI50 (DU-145): 22.8 µM (inactive) | GI50 (MDA-MB-231): 17 µM (inactive) | GI50 (SF-295): 13.3 µM (inactive) | GI50 (HCC 2998): 15.2 µM (inactive) | GI50 (MCF7): 19.7 µM (inactive) | GI50 (OVCAR-4): 20 µM (inactive) | GI50 (HL-60): 14.6 µM (inactive) | GI50 (SW-620): 13.6 µM (inactive) | GI50 (SN12C): 17.8 µM (inactive) | GI50 (SK-OV-3): 17.7 µM (inactive) | GI50 (SK-MEL-5): 22.4 µM (inactive) | GI50 (NCI-H23): 17.1 µM (inactive) | GI50 (SK-MEL-28): 17.3 µM (inactive) | GI50 (UACC-257): 17.9 µM (inactive) | GI50 (OVCAR-5): 16.5 µM (inactive) | GI50 (OVCAR-3): 15.1 µM (inactive) | GI50 (CCRF-CEM): 14.6 µM (inactive) | GI50 (TK-10): 17.9 µM (inactive) | GI50 (HT-29): 15.3 µM (inactive) | GI50 (NCI/ADR-RES): 30.8 µM (inactive) | GI50 (NCI-H522): 18.3 µM (inactive) | GI50 (A498): 16.9 µM (inactive) | GI50 (Malme-3M): > 100 µM (inactive) | GI50 (HCT-15): 15.6 µM | GI50 (K562): 12.3 µM (inactive) | GI50 (COLO 205): 14.6 µM (inactive) | GI50 (T47D): 23.6 µM (inactive) | GI50 (UO-31): 15.7 µM (inactive) | GI50 (KM12): 18.2 µM (inactive) | GI50 (OVCAR-8): 19.7 µM (inactive) | GI50 (CAKI-1): 20.2 µM (inactive) | GI50 (SK-MEL-2): 18.9 µM (inactive) | GI50 (MDA-MB-435): 17.8 µM (inactive) | GI50 (M14): 16.9 µM (inactive) | GI50 (U-251): 17.9 µM (inactive) | GI50 (RPMI-8226): 20.6 µM (inactive) | GI50 (EKVX): 19.2 µM (inactive) | GI50 (UACC-62): 18.1 µM (inactive) | GI50 (RXF 393): 20 µM (inactive) | GI50 (A549): 18.5 µM (inactive) | GI50 (LOX IMVI): 17.7 µM (inactive) | GI50 (HOP-62): 16.2 µM (inactive) | GI50 (NCI-H226): 37.9 µM (inactive) | GI50 (HOP-92): 15.2 µM (inactive) | GI50 (ACHN): 17.8 µM (inactive) | GI50 (IGROV-1): 18.2 µM (inactive) | GI50 (BT-549): 19.2 µM (inactive) | GI50 (Hs-578T): 31.9 µM (inactive) | GI50 (786-0): 14.3 µM (inactive) | GI50 (SNB-75): 21.5 µM (inactive)
